The results in this text go back to US10889551B2, “Biemamides and related scaffolds as inhibitors of transforming growth factor-beta signaling” (Wisconsin Alumni Research Foundation, priority 2018, dated 2021).

One assay has as its target TGF-β signaling. Put plainly: MLEC luciferase assay (TGF-β activated luciferase, Bright-Glo). The format is cell-based, mink. The settings on record: purified compounds, 24 hours with TGF-β, read-out: IC50, inhibition of TGF-β (MLEC-based TGF-β inhibition assay). The protocol:
A total of 3840 fractions, plated on 12 384-well plates, were assayed in a high throughput screen at 10 μM final concentration. For purposes of concentration calculations we set the average molecular weight of each compound in the library at 500 Da. Each fraction had its different mass, therefore different volumes were used for each well in the screening. Z′ for the plates were between 0.53 and 0.45. Initial hits were identified as compounds that inhibited the Bright-Glo signal (see below MLEC assay) by more than 84%. Using this criteria, we identified 48 compounds of interest. The 48 initial hits were then re-screened in a 10 point dose response curve in duplicate. The compounds were assayed for both luciferase inhibition and toxicity using CellTiter-Glo (Promega). Of the 48 compounds identified in the HTS assay, 19 inhibited TGF-β activated luciferase activity without inducing mink lung cell toxicity. MLEC were plated into 384-well plates at a density of 5000 cells/well using Micro-flow (Biotek) multi well reagent dispenser and incubated overnight at 37° C. in the CO2 incubator. 1 μM control SB431542 or 10 μM of compounds 1-5 were added to the wells using the ECHO 550 (Labcyte), then added 10 μL media with […] TGF-β using Micro-flow and incubated for 24 hours at 37° C. 25 μL Bright-Glo (Promega) was added using Micro-flow, and agitated for 4 minutes. The Enspire (Perkin Elmer) plate reader was used to measure the TGF-β response in each well. The luciferase activity was reported as relative light units (RLU), and the readout of each tested fraction was then normalized against negative controls. Dose-response TGF-β data and cytotoxicity assays using fibroblasts were employed to more rigorously evaluate the 48 initial hits. […] Chemical analysis of the secondary metabolites in the active wells/extract fractions of WMMA2266 led to the discovery of five pyrimidinedione derivatives, biemamides A-E (1-5).

In a further assay the test system is NMuMG epithelial cells. Put plainly: TGF-β induced EMT in NMuMG cell line (imaging assay). Format: cell-based, mouse. To be noted: 50 pM TGF-β, 72 h. The protocol:
Mouse mammary epithelial cell line NMuMG was purchased from American Tissue Culture Collection (ATCC, Manassas, Va.), and NMuMG were cultured as per ATCC recommendations. Imaging assay: Cells were plated in glass bottomed 96 well imaging plates, at a density of 1,000 cells per well, and were allowed to attach overnight. Cells (with exception of 3 control wells) were treated with 50 pm TGF-β. Along with the TGF-β test compounds 1-5 were added in at various doses, and a set of wells was treated with a known TGF-β inhibitor SB431542 at 1 μM.
In the absence of TGF-β, NMuMG cells form an epithelial shape; incubation with 50 pM TGF-β for 72 h induces a more fibroblast-like, spindle shaped morphology indicative of mesenchymal cells (FIGS. 3A-3D). […] Nine concentrations (160-0.625 nM) of compounds 1-5 were tested for their ability to impact TGF-β signaling in NMuMG cells.

The next assay has as its system C. elegans. Put plainly: C. elegans assay (development and body length). The format is in vivo. The settings on record: three concentrations spanning 1 μM→100 μM. The protocol:
Synchronized cultures of C. elegans were obtained using the following procedure: a mixed population of worms containing many gravid adults was washed off of two 10 cm NGM plates using distilled water. C. elegans were pelleted at 1000 g in a 15 mL conical tube and the supernatant was discarded. A mix of 3 mL distilled water, 1 mL bleach, and 1 mL 1 M NaOH was added. The tube was inverted for several minutes until it could be observed that the gravid adults had released their eggs. The eggs were pelleted at 1000 g, washed three times with distilled water and suspended in 10 mL of M9 (3.0 g KH2PO4, 6.0 g Na2HPO4, 0.5 g NaCl, 1.0 g NH4Cl into 1 L distilled water). The egg suspension was rotated overnight in a 50 mL conical tube during which the embryos hatched and arrested at the L1 stage. The C. elegans were washed twice and diluted with M9 to reach an approximate concentration of 20 worms/10 μL. Each well in a 96-well plate was prepared by adding 10 μL worm suspension, 0.5 μg OP50 E. coli, 1 μL DMSO (control) or 1 μL DMSO with compounds, and brought to a final volume of 100 μL with M9 plus cholesterol (5 μg/mL). The plates were incubated in a humidified box at 23° C. for 72 hours. To immobilize worms to measure body length the worms were killed by immersing the 96-well plate in a 70° C. water bath for several minutes. Each experiment was performed in triplicate within each plate. […]

What is called IC50 is the concentration that inhibits the measured activity by half. As to Biemamide E [Compound 5], on TGF-β signaling, the half-inhibitory concentration (IC50) was found to be 83.2 nM.
Same read-out and setting: for Biemamide C [Compound 3] the value was 51.5 nM; for Biemamide B [Compound 2], 18.7 nM.
As to Biemamide A [Compound 1], in the assay on NMuMG epithelial cells (nine concentrations 160-0.625 nM (FIG. 3C: 160 nM compound 1)), the “inhibition of TGF-β-induced EMT (cell morphology)” value is recorded as “cells maintained their epithelial phenotype”. Moreover, the IC50 on TGF-β signaling was 51.5 nM.
With Biemamide D [Compound 4], at TGF-β signaling, the IC50 is 102 nM.
As for `NC(=O)c1ccc(-c2nc(-c3ccc4c(c3)OCO4)c(-c3ccccn3)[nH]2)cc1` [SB431542, reference compound], the C. elegans size entry in the assay on C. elegans is listed as “did not alter C. elegans size”. The “inhibition of TGF-β-induced EMT (cell morphology), positive control” value in the assay with NMuMG epithelial cells (1 μM) was “blocked TGF-β-induced transition of the NMuMG epithelial cells into mesenchymal cells”. In addition, in the assay on TGF-β signaling, the IC50 amounted to 411 nM.
